Measurements reported in patent EP0996436B1, “PHARMACEUTICAL FORMULATIONS CONTAINING POORLY SOLUBLE DRUG SUBSTANCES” (Sanofi-Aventis, priority 1997, dated 1998).

Tests used:
[1] = Dissolution rate of SR48692 capsules in deionized water pH 5.5 (USP Apparatus 2); type: physicochemical; details: at the end of the experiment of 60 minutes, water pH 5.5 (unbuffered), 37°C
Description: The dissolution rate of 25 mg SR48692 solid dispersion in hard gelatin capsules were measured in deionized water (900 ml, pH=5.5, unbuffered) at 37°C. A USP dissolution system (Apparatus 2) with a paddle speed of 100 RPM was used. Dissolution rate was monitored by UV (Hewlett Packard 8452A) at 234 nm.
A screening dissolution test was run in USP Apparatus 2 with water at pH 5.5 (unbuffered) at 37°C comparing the solid dispersion of this invention (Example 2) with unformulated (jet-milled) SR48692. The solid dispersions provide enormous dissolution enhancement with respect to pure drug and low impurity levels (0.4%).

[2] = Solubility of SR48692 in polyethylene glycol/NaOH/water; type: physicochemical; details: PEG/NaOH/H2O; mole equivalents of NaOH per mole of drug 1.0 and less

dissolved [1]: < 10%
solubility [2]: Inadequate
Substance: SR48692
